Results from ChEMBL document CHEMBL5390204, “Persephacin Is a Broad-Spectrum Antifungal Aureobasidin Metabolite That Overcomes Intrinsic Resistance in Aspergillus fumigatus” (J Nat Prod, 2023).

Assays:
Format in all cases: functional
[1] = test system: Curvularia lunata; experiment: Antifungal activity against Curvularia lunata NRRL6409 assessed as reduction in fungal viability incubated for 48 hrs by microplate reader analysis
[2] = test system: Candida parapsilosis; experiment: Antifungal activity against Candida parapsilosis 15 assessed as inhibition in fungal growth incubated for 48 hrs by microplate reader analysis; conditions: Lodderomyces parapsilosis
[3] = test system: Candida albicans; experiment: Antifungal activity against Candida albicans SC5314 assessed as inhibition in fungal growth incubated for 48 hrs in presence of 10% serum by microplate reader analysis
[4] = test system: Cryptococcus neoformans; experiment: Antifungal activity against Cryptococcus neoformans H99 assessed as inhibition in fungal growth incubated for 48 hrs in presence of 0% serum by microplate reader analysis
[5] = test system: [Candida] haemuloni; experiment: Antifungal activity against multidrug-resistant Candida haemulonii 393 assessed as inhibition in fungal growth incubated for 48 hrs by microplate reader analysis; conditions: Candidozyma haemuli
[6] = test system: Aspergillus fumigatus; experiment: Antifungal activity against Aspergillus fumigatus NRRL6113 assessed as reduction in fungal viability incubated for 48 hrs by microplate reader analysis
[7] = test system: Mucor circinelloides; experiment: Antifungal activity against Mucor circinelloides 235C7 assessed as reduction in fungal viability incubated for 48 hrs by microplate reader analysis
[8] = test system: Candida albicans; experiment: Antifungal activity against Candida albicans 30 assessed as inhibition in fungal growth incubated for 48 hrs by microplate reader analysis
[9] = test system: Candida parapsilosis; experiment: Antifungal activity against Candida parapsilosis 7 assessed as inhibition in fungal growth incubated for 48 hrs by microplate reader analysis; conditions: Lodderomyces parapsilosis
[10] = test system: Candida parapsilosis; experiment: Antifungal activity against Candida parapsilosis 18 assessed as inhibition in fungal growth incubated for 48 hrs by microplate reader analysis; conditions: Lodderomyces parapsilosis
[11] = test system: Aspergillus flavus; experiment: Antifungal activity against Aspergillus flavus NRRL485 assessed as reduction in fungal growth incubated for 48 hrs by microplate reader analysis
[12] = test system: Nakaseomyces glabratus; experiment: Antifungal activity against Candida glabrata 11 assessed as inhibition in fungal growth incubated for 48 hrs by microplate reader analysis
[13] = test system: Candida albicans; experiment: Antifungal activity against Candida albicans 10 assessed as inhibition in fungal growth incubated for 48 hrs by microplate reader analysis
[14] = test system: [Candida] auris; experiment: Antifungal activity against multidrug-resistant Candida auris 381 assessed as inhibition in fungal growth incubated for 48 hrs in presence of 10% serum by microplate reader analysis; conditions: Candidozyma auris
[15] = test system: Aspergillus fumigatus; experiment: Antifungal activity against Aspergillus fumigatus ATCC MYA-3627 assessed as inhibition in fungal growth incubated for 48 hrs in presence of 10% serum by microplate reader analysis
[16] = test system: Candida albicans; experiment: Antifungal activity against Candida albicans 8 assessed as inhibition in fungal growth incubated for 48 hrs by microplate reader analysis
[17] = test system: Curvularia lunata; experiment: Antifungal activity against Curvularia lunata NRRL6409 assessed as reduction in fungal growth incubated for 48 hrs by microplate reader analysis
[18] = test system: Candida duobushaemulonii; experiment: Antifungal activity against multidrug-resistant Candida duobushaemulonii 392 assessed as inhibition in fungal growth incubated for 48 hrs by microplate reader analysis; conditions: Candidozyma duobushaemuli
[19] = test system: Candida albicans; experiment: Antifungal activity against Candida albicans 3 assessed as inhibition in fungal growth incubated for 48 hrs by microplate reader analysis
[20] = test system: Candida albicans; experiment: Antifungal activity against Candida albicans SC5314 assessed as inhibition in fungal growth incubated for 48 hrs in presence of 0% serum by microplate reader analysis
[21] = test system: Candida tropicalis; experiment: Antifungal activity against Candida tropicalis 13 assessed as inhibition in fungal growth incubated for 48 hrs by microplate reader analysis
[22] = test system: Pichia kudriavzevii; experiment: Antifungal activity against multidrug-resistant Candida krusei 397 assessed as inhibition in fungal growth incubated for 48 hrs by microplate reader analysis
[23] = test system: Candida albicans; experiment: Antifungal activity against Candida albicans SC5314 assessed as reduction in fungal viability incubated for 48 hrs by microplate reader analysis
[24] = test system: Nakaseomyces glabratus; experiment: Antifungal activity against Candida glabrata 20 assessed as inhibition in fungal growth incubated for 48 hrs by microplate reader analysis
[25] = test system: Aspergillus fumigatus; experiment: Antifungal activity against Aspergillus fumigatus NRRL5109 assessed as reduction in fungal viability incubated for 48 hrs by microplate reader analysis
[26] = test system: Candida parapsilosis; experiment: Antifungal activity against Candida parapsilosis 28 assessed as inhibition in fungal growth incubated for 48 hrs by microplate reader analysis; conditions: Lodderomyces parapsilosis
[27] = test system: Candida albicans; experiment: Antifungal activity against Candida albicans SC5314 assessed as inhibition in fungal growth incubated for 48 hrs in presence of 5% serum by microplate reader analysis
[28] = test system: Candida albicans; experiment: Antifungal activity against Candida albicans 5 assessed as inhibition in fungal growth incubated for 48 hrs by microplate reader analysis
[29] = test system: Fusarium solani; experiment: Antifungal activity against Fusarium solani 243G2 assessed as reduction in fungal growth incubated for 48 hrs by microplate reader analysis
[30] = test system: Saccharomyces cerevisiae; experiment: Antifungal activity against multidrug-resistant Saccharomyces cerevisiae 400 assessed as inhibition in fungal growth incubated for 48 hrs by microplate reader analysis
[31] = test system: Aspergillus flavus; experiment: Antifungal activity against Aspergillus flavus NRRL485 assessed as reduction in fungal viability incubated for 48 hrs by microplate reader analysis
[32] = test system: Candida parapsilosis; experiment: Antifungal activity against Candida parapsilosis ATCC 22019 (Y-12969) assessed as reduction in fungal viability incubated for 48 hrs by microplate reader analysis
[33] = test system: Candida parapsilosis; experiment: Antifungal activity against Candida parapsilosis 9 assessed as inhibition in fungal growth incubated for 48 hrs by microplate reader analysis; conditions: Lodderomyces parapsilosis
[34] = test system: [Candida] auris; experiment: Antifungal activity against multidrug-resistant Candida auris 388 assessed as inhibition in fungal growth incubated for 48 hrs by microplate reader analysis; conditions: Candidozyma auris
[35] = test system: [Candida] auris; experiment: Antifungal activity against multidrug-resistant Candida auris 383 assessed as inhibition in fungal growth incubated for 48 hrs by microplate reader analysis; conditions: Candidozyma auris
[36] = test system: Rhizopus arrhizus; experiment: Antifungal activity against Rhizopus oryzae FGSC 9543 assessed as reduction in fungal growth incubated for 48 hrs by microplate reader analysis
[37] = test system: Cryptococcus neoformans; experiment: Antifungal activity against Cryptococcus neoformans H99 assessed as reduction in fungal viability incubated for 48 hrs by microplate reader analysis
[38] = test system: Aspergillus niger; experiment: Antifungal activity against Aspergillus niger FGSC A732 assessed as reduction in fungal growth incubated for 48 hrs by microplate reader analysis
[39] = test system: Aspergillus niger; experiment: Antifungal activity against Aspergillus niger FGSC A732 assessed as reduction in fungal viability incubated for 48 hrs by microplate reader analysis
[40] = test system: Nakaseomyces glabratus; experiment: Antifungal activity against Candida glabrata 4 assessed as inhibition in fungal growth incubated for 48 hrs by microplate reader analysis
[41] = test system: Candida duobushaemulonii; experiment: Antifungal activity against multidrug-resistant Candida duobushaemulonii 391 assessed as inhibition in fungal growth incubated for 48 hrs by microplate reader analysis; conditions: Candidozyma duobushaemuli
[42] = test system: Mucor circinelloides; experiment: Antifungal activity against Mucor circinelloides 235C7 assessed as reduction in fungal growth incubated for 48 hrs by microplate reader analysis
[43] = test system: Fusarium solani; experiment: Antifungal activity against Fusarium solani 243G2 assessed as reduction in fungal viability incubated for 48 hrs by microplate reader analysis
[44] = test system: Candida tropicalis; experiment: Antifungal activity against Candida tropicalis ATCC750 (Y-12699) assessed as reduction in fungal growth incubated for 48 hrs by microplate reader analysis

CC[C@H](C)C[C@H](C)C[C@H](C)C[C@@H]1NC(=O)[C@H](C(C)C)N(C)C(=O)[C@@H]([C@H](C)CC)OC(=O)[C@H](C(C)(C)O)N(C)C(=O)[C@H](CC(C)C)NC(=O)[C@H](C(C)C)N(C)C(=O)[C@H]([C@H](C)CC)NC(=O)[C@@H]2CCCN2C(=O)CN(C)C1=O
0.2 µM: MIC80 [27]
1.3 µM: MIC80 [10] | MIC80 [11] | MIC80 [14] | MFC<=99.9 [23] | MIC80 [28] | MIC80 [29] | MIC80 [38] | MIC80 [40] | MIC80 [44]
> 10 µM: MFC [11] | MFC [36] | MIC80 [36] | MFC [38] | MFC [42] | MIC80 [42]
2.5 µM: MIC80 [2] | MIC80 [9] | MIC80 [13] | MIC80 [15] | MIC80 [18] | MIC80 [19] | MIC80 [22] | MIC80 [26] | MFC [29] | MIC80 [30] | MFC<=99.9 [32] | MIC80 [33] | MIC80 [34] | MIC80 [35] | MFC<=99.9 [37] | MIC80 [41] | MFC<=99.9 [43] | MFC [44]
0.3 µM: MIC80 [3] | MIC80 [5] | MIC80 [17] | MIC80 [24]
0.6 µM: MFC<=99.9 [1] | MIC80 [4] | MIC80 [12] | MIC80 [16] | MFC [17] | MIC80 [20] | MIC80 [21]
>10 µM: MFC<=99.9 [7] | MFC<=99.9 [31] | MFC<=99.9 [39]
5 µM: MFC<=99.9 [6] | MIC80 [8] | MFC<=99.9 [25]

C[C@@H]1[C@H](O)[C@@H](C)/C=C/C=C/C=C/C=C/C=C/C=C/C=C/[C@H](O[C@@H]2O[C@H](C)[C@@H](O)[C@H](N)[C@@H]2O)C[C@@H]2O[C@](O)(C[C@@H](O)C[C@@H](O)[C@H](O)CC[C@@H](O)C[C@@H](O)CC(=O)O[C@H]1C)C[C@H](O)[C@H]2C(=O)O [AMPHOTERICIN B]
0.2 µM: MIC80 [15] | MIC80 [21]
0.3 µM: MIC80 [12] | MIC80 [14] | MIC80 [17] | MFC [36] | MIC80 [36]
< 0.2 µM: MIC80 [3] | MIC80 [27]
0.6 µM: MIC80 [13] | MIC80 [16] | MIC80 [19] | MIC80 [20] | MIC80 [24] | MIC80 [28] | MIC80 [38]
5 µM: MIC80 [5] | MIC80 [11] | MIC80 [18] | MFC<=99.9 [25] | MFC<=99.9 [32] | MIC80 [41]
1.3 µM: MIC80 [4] | MFC<=99.9 [7] | MIC80 [10] | MIC80 [26] | MFC [29] | MIC80 [29] | MIC80 [30] | MIC80 [40] | MFC [42] | MIC80 [42] | MFC<=99.9 [43] | MIC80 [44]
10 µM: MFC<=99.9 [6] | MFC [11] | MFC<=99.9 [31]
2.5 µM: MFC<=99.9 [1] | MIC80 [2] | MIC80 [8] | MIC80 [9] | MFC [17] | MIC80 [22] | MFC<=99.9 [23] | MIC80 [33] | MIC80 [34] | MIC80 [35] | MFC<=99.9 [37] | MFC [38] | MFC<=99.9 [39] | MFC [44]
